# Measurements: paper PMC5811606, “Characterization of ^111In-labeled Glucose-Dependent Insulinotropic Polypeptide as a Radiotracer for Neuroendocrine Tumors” (Scientific Reports, 2018)
# Target: T1, GIPR on the islets of Langerhans (Mus musculus, UniProt Q0P543)
# T1 construct: Islets of Langerhans were isolated from donor C3H mice by collagenase digestion; from tissue; host or cells: isolated islets of Langerhans from C3H mice
# T1 sequence (Q0P543 19-460): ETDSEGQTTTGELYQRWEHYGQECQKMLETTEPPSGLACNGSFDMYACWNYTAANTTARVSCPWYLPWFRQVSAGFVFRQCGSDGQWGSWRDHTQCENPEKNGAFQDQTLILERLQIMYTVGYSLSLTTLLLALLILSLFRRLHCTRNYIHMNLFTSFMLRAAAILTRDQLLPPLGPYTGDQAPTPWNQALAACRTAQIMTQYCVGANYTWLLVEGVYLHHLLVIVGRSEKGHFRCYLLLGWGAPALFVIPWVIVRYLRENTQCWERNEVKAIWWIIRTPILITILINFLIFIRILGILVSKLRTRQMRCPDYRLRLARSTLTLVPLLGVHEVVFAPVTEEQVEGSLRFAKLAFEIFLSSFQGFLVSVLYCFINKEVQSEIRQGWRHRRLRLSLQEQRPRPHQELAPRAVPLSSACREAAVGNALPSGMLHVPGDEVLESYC
# Assay: In vitro binding to isolated islets
# Settings: islets of C3H mice, 24 hours, 37 °C, + 25 µg unlabeled GIP1-42, mean ± SD
# Experimental: Islets of Langerhans were isolated from donor C3H mice by collagenase digestion as follows. Mice were euthanized by CO2/O2 suffocation and 2 ml of ice cold RPMI 1640 containing 1 mg/ml collagenase type V (Sigma Aldrich) were infused via the pancreatic duct in situ. After dissection, the perfused pancreata were collected in serum free medium containing collagenase and kept on ice until digestion. Pancreata were digested for 12 min at 37 °C. Digestion was stopped by adding RPMI medium containing 10% FCS, 2 mM L-glutamine, 100 U/ml penicillin and 100 U/ml streptomycin (complete RPMI). After washing, digested pancreata were passed through a mesh. Afterwards, islets were purified on a discontinuous Ficoll gradient (densities: 1.108; 1.096; 1.037; Cellgro by Mediatech Inc, Manassas, VA, USA) by centrifugation at 625 × g for 16 min without brake. Islets were collected from the intersection of the second and third layer and remaining Ficoll was removed by washing with complete RPMI. Isolated islets were cultured overnight in complete RPMI medium in a humidified atmosphere containing 5% CO2 at 37 °C.
# After overnight recovery from the isolation procedure, islets from the donor C3H mice were collected, counted and resuspended in complete RPMI. […] After incubation, islets were washed extensively with binding buffer and islet-associated radioactivity was measured in a well type gamma counter.
smiles,measurement,value
"CC[C@H](C)[C@H](NC(=O)[C@H](CO)NC(=O)[C@H](Cc1ccc(O)cc1)NC(=O)[C@H](CC(=O)O)NC(=O)[C@H](CO)NC(=O)[C@@H](NC(=O)[C@H](Cc1ccccc1)NC(=O)[C@@H](NC(=O)CNC(=O)[C@H](CCC(=O)O)NC(=O)[C@H](C)NC(=O)[C@H](Cc1ccc(O)cc1)NC(C)=O)[C@@H](C)O)[C@@H](C)CC)C(=O)N[C@@H](C)C(=O)N[C@@H](CCSC)C(=O)N[C@@H](CC(=O)O)C(=O)N[C@@H](CCCCN)C(=O)N[C@H](C(=O)N[C@@H](Cc1c[nH]cn1)C(=O)N[C@@H](CCC(N)=O)C(=O)N[C@@H](CCC(N)=O)C(=O)N[C@@H](CC(=O)O)C(=O)N[C@@H](Cc1ccccc1)C(=O)N[C@H](C(=O)N[C@@H](CC(N)=O)C(=O)N[C@@H](Cc1c[nH]c2ccccc12)C(=O)N[C@@H](CC(C)C)C(=O)N[C@@H](CC(C)C)C(=O)N[C@@H](C)C(=O)N[C@@H](CCC(N)=O)C(=O)N[C@@H](CCCCN)C(=O)NCC(=O)N[C@@H](CCCCN)C(=O)N[C@@H](CCCCN)C(=O)N[C@@H](CC(N)=O)C(=O)N[C@@H](CC(=O)O)C(=O)N[C@@H](Cc1c[nH]c2ccccc12)C(=O)N[C@@H](CCCCNC(=O)CN(CCN(CCN(CC(=O)O)CC(=O)O)CC(=O)O)CC(=O)O)C(=O)N[C@@H](Cc1c[nH]cn1)C(=O)N[C@@H](CC(N)=O)C(=O)N[C@H](C(=O)N[C@H](C(=O)N[C@@H](CCC(N)=O)C(=O)O)[C@@H](C)O)[C@@H](C)CC)C(C)C)[C@@H](C)CC [[Lys^37(^111In-DTPA)]N-acetyl-GIP1-42, metal not drawn]",tracer bound to 200 isolated islets with excess unlabeled GIP1-42,0.03 ± 0.01 fmol
